Among the data in patent publication US6835720B2, “Compounds having antiviral activity” (Nissin Food Products Co., Ltd., priority 1996, dated 2004) are IC50 and CC50 values, retold here.

Where two headings read alike, the source gives them in different places. A value given as a limit tells only on which side of the number the result lay.

One series deals with AIDS virus (HIV-1, IIIb). The series is classed as cell-based. The settings on record: HIV-1 IIIb in H9 cells, p24 in culture supernatant by ELISA on the 6th day. On the procedure: (§1) Samples of various concentrations (25 μl) are distributed into a 24-well microplate, immediately added with human T cells (H9 cell line, 1.2×10^5/ml) (1 ml), covered, and incubated at 37° C. for 1 h. Then, AIDS virus (HIV-1, IIIb, 100 TCID 50) (25 μl) is added to each well and thoroughly mixed, covered again, and incubated under the CO2 atmosphere at 37° C. for 3 days. On the fourth day, aliquots (200 μl) of the culture medium from each well are transferred into a fresh microplate. The growth medium (500 μl) is added to each well, and further incubated for 2 days.
(§2) On the 6th day, aliquots (90 μl) of the culture supernatant are withdrawn, and assayed the amount of p24, a constituent of HIV-1, by ELISA method using the anti-p24 antibody to assess the growth of said virus. Also, using the remaining cell culture suspension (100 μl), viable cells are counted by the MTT method. Experimental values are expressed as the ratios (%) to the negative control value (measured using the solvent to dissolve test compounds as the sample) to represent the anti-HIV activity and cytotoxicity. Then, for the unified representation of the anti-HIV activity and cytotoxicity, the concentrations of test compounds at their 50% values are obtained from the activity-concentration curves and the cytotoxicity-concentration, and represented as IC50 and CC50, respectively.

For series [1], the system named is human T cells (H9 cell line). The experiment in a line: Cytotoxicity, viable cells counted by the MTT method. The class given is cell-based. As to the method:
as §1, §2

One may read the IC50 as the concentration that inhibits the measured activity by half. A high value points to a need for much substance. In the series with AIDS virus (HIV-1, IIIb), “3-O-[Sodium{5-acetamido-3,5-dideoxy-4,7,8,9-tetra-O-(sodium oxysulfonyl)-D-glycero-α-D-galacto-2-nonulopyranosyl}onate]-1,2-di-O-tetradecyl-Sn-glycerol [Example 7]” displayed an IC50 of 16 µM. The compound further displayed a CC50 in series [1] of more than 200 µM.

Regarding `CCCCCCCCCCCCCCCCCCOCC(COC1(C(=O)O)CC(OS(=O)(=O)O)C(NC(C)=O)C(C(OS(=O)(=O)O)C(COS(=O)(=O)O)OS(=O)(=O)O)O1)OS(=O)(=O)O` [Example 10, 3-O-[Sodium{5-acetamido-3,5-dideoxy-4,7,8,9-tetra-O-(sodiumoxysulfonyl)-D-glycero-α-D-galacto-2-nonulopyranosyl}onate]-2-O-(sodiumoxysulfonyl)-1-O-octadecyl-Sn-glycerol], 30 µM corresponded to half-maximal inhibition with AIDS virus (HIV-1, IIIb) (IC50). Moreover, the CC50 in series [1] was more than 200 µM.

In turn, “3-S-[Sodium{5-acetamido-3,5-dideoxy-4,7,8,9-tetra-O-(sodium oxysulfonyl)-D-glycero-α-D-galacto-2-nonulopyranosyl}onate]-1,2-di-O-tetradecyl-Sn-thioglycerol [Example 14]” returned a half-maximal inhibitory concentration (IC50) in the series with AIDS virus (HIV-1, IIIb) of 15 µM. Also, in series [1], the CC50 was more than 200 µM.

Compound `CC(=O)N[C@H]1[C@H]([C@H](OS(=O)(=O)O)[C@@H](COS(=O)(=O)O)OS(=O)(=O)O)O[C@@](O[C@H]2CC[C@@]3(C)C(=CC[C@H]4[C@@H]5CC[C@H]([C@H](C)CCCC(C)C)[C@@]5(C)CC[C@@H]43)C2)(C(=O)O)C[C@@H]1OS(=O)(=O)O` [Example 24, 3β-[Sodium{5-acetamido-3,5-dideoxy-4,7,8,9-tetra-O-(sodiumoxysulfonyl)-D-glycero-α-D-galacto-2-nonulopyranosyl}onate]-5-cholestene] returned a 50% inhibitory concentration (IC50) in the series on AIDS virus (HIV-1, IIIb) of 34 µM. The CC50 in series [1] was more than 200 µM.

Take “1-[N-{5-Acetamido-3,5-dideoxy-2-O-methyl-4,7,8,9-tetra-O-(sodium oxysulfonyl)-D-glycero-β-D-galacto-2-nonulopyranosonyl}amino]-2,2-bis(docosyloxymethyl) propane [Example 59]”: the midpoint of inhibition with AIDS virus (HIV-1, IIIb), the IC50, lay at 1.4 µM. Further, in series [1], the CC50 is more than 200 µM.

`CCCCCCCCCCCCCCCCCCO[C@]1(C(=O)O)C[C@H](OS(=O)(=O)O)[C@@H](NC(C)=O)[C@H]([C@H](OS(=O)(=O)O)[C@@H](COS(=O)(=O)O)OS(=O)(=O)O)O1` [Example 26, Sodium[octadecyl 5-acetamido-3,5-dideoxy-4,7,8,9-tetra-O-(sodiumoxysulfonyl)-D-glycero-α-D-galacto-2-nonulopyranosid)onate]: half-maximal inhibition in the series on AIDS virus (HIV-1, IIIb) (IC50) required 100 µM. The CC50 in series [1] was more than 200 µM.

In turn, `CCCCCCCCCCCCCCCCCCOC[C@H](CO[C@@]1(C(=O)O)C[C@H](OS(=O)(=O)O)[C@@H](NC(C)=O)[C@H]([C@H](OS(=O)(=O)O)[C@@H](COS(=O)(=O)O)OS(=O)(=O)O)O1)OS(=O)(=O)O` [Example 11, 3-O-[Sodium{5-acetamido-3,5-dideoxy4,7,8,9-tetra-O-(sodiumoxysulfonyl)-D-glycero-β-D-galacto-2-nonulopyranosyl}onate]-2-O-(sodiumoxysulfonyl)-1-O-octadecyl-Sn-glycerol] displayed a 50% inhibitory concentration (IC50) with AIDS virus (HIV-1, IIIb) of 13 µM. The CC50 in series [1] was 200 µM.

In turn, `CCCCCCCC/C=C\CCCCCCCCOC1(C(=O)O)CC(OS(=O)(=O)O)C(NC(C)=O)C(C(OS(=O)(=O)O)C(COS(=O)(=O)O)OS(=O)(=O)O)O1` [Example 25, Sodium[oleyl 5-acetamido-3,5-dideoxy-4,7,8,9-tetra-O-(sodiumoxysulfonyl)-D-glycero-α-D-galacto-2-nonulopyranosid]onate] displayed a half-inhibitory concentration (IC50) in the series with AIDS virus (HIV-1, IIIb) of 100 µM. The CC50 in series [1] was more than 200 µM.

As to `CCCCCCCCCCCCCCCCCCCCCCOCC(COC1(C(=O)O)CC(OS(=O)(=O)O)C(OS(=O)(=O)O)C(C(OS(=O)(=O)O)C(COS(=O)(=O)O)OS(=O)(=O)O)O1)OCCCCCCCCCCCCCCCCCCCCCC` [Example 41, 3-O-[Sodium{3-deoxy-4,5,7,8,9-penta-O-(sodiumoxysulfonyl)-D-glycero-α-D-galacto-2-nonulopyranosyl}onate]-1,2-di-O-docosyl-Sn-glycerol], in the series with AIDS virus (HIV-1, IIIb), the IC50 was found to be 4 µM. The compound also gave a CC50 in series [1] of more than 200 µM.

Take `CCCCCCCCCCCCCCCCCCCCCCOCC(CC)(COCCCCCCCCCCCCCCCCCCCCCC)COC1(C(=O)O)CC(OS(=O)(=O)O)C(NC(C)=O)C(C(OS(=O)(=O)O)C(COS(=O)(=O)O)OS(=O)(=O)O)O1` [Example 50, Sodium[2,2-bis(docosyloxymethyl)butyl 5-acetamido-3,5-dideoxy-4,7,8,9-tetra-O-(sodiumoxysulfonyl)-D-glycero-α-D-galacto-2-nonulopyranosid)onate]: half-maximal inhibition in the series on AIDS virus (HIV-1, IIIb) (IC50) was put at 1.1 µM. This compound gave a CC50 in series [1] of more than 200 µM.

On to `CCCCCCCCCCCCCCCCCCCCOCC(COC1(C(=O)O)CC(OS(=O)(=O)O)C(NC(C)=O)C(C(OS(=O)(=O)O)C(COS(=O)(=O)O)OS(=O)(=O)O)O1)OCCCCCCCCCCCCCCCCCCCC` [Example 17, 3-O-[Sodium{5-acetamido-3,5-dideoxy-4,7,8,9-tetra-O-(sodiumoxysulfonyl)-D-glycero-α-D-galacto-2-nonulopyranosyl)onate]-1,2-di-O-eicosyl-Sn-glycerol], for which, in the series with AIDS virus (HIV-1, IIIb), the IC50 was 2.5 µM. Besides, in series [1], the CC50 is more than 20 µM.

Consider `CCCCCCCCCCOCC(COC1(C(=O)O)CC(OS(=O)(=O)O)C(NC(C)=O)C(C(OS(=O)(=O)O)C(COS(=O)(=O)O)OS(=O)(=O)O)O1)OCCCCCCCCCC` [Example 6, 3-O-[Sodium{5-acetamido-3,5-dideoxy4,7,8,9-tetra-O-(sodiumoxysulfonyl)-D-glycero-β-D-galacto-2-nonulopyranosyl}onate]-1,2-di-O-decyl-Sn-glycerol], for which inhibition with AIDS virus (HIV-1, IIIb) was half-maximal at 50 µM (IC50). In addition, the CC50 in series [1] (H9 cells, MTT method, 6th day, read-out: CC 50) was more than 200 µM.

In the series with AIDS virus (HIV-1, IIIb), `CCCCCCCCCCCCCCCCCCCCCCCCOCC(COC1(C(=O)O)CC(OS(=O)(=O)O)C(NC(C)=O)C(C(OS(=O)(=O)O)C(COS(=O)(=O)O)OS(=O)(=O)O)O1)OCCCCCCCCCCCCCCCCCCCCCCCC` [Example 20, 3-O-[Sodium{5-acetamido-3,5-dideoxy-4,7,8,9-tetra-O-(sodiumoxysulfonyl)-D-glycero-α-D-galacto-2-nonulopyranosyl}onate]-1,2-di-O-tetracosyl-Sn-glycerol] yielded a half-maximal inhibitory concentration (IC50) of 1.2 µM. In addition, the CC50 in series [1] is more than 20 µM.

For `CCCCCCCCCCCCCCCCCCCCOCC(C)(COCCCCCCCCCCCCCCCCCCCC)CO[C@]1(C(=O)O)C[C@H](OS(=O)(=O)O)[C@@H](NC(C)=O)[C@H]([C@H](OS(=O)(=O)O)[C@@H](COS(=O)(=O)O)OS(=O)(=O)O)O1` [Example 32, Sodium[2,2-bis(eicosyloxymethyl)propyl 5-acetamido-3,5-dideoxy-4,7,8,9-tetra-O-(sodiumoxysulfonyl)-D-glycero-α-D-galacto-2-nonulopyranosid)onate], the midpoint of inhibition in the series with AIDS virus (HIV-1, IIIb), the IC50, lay at 2.5 µM. The compound further came in with a CC50 in series [1] of more than 200 µM.

In the case of `CCCCCCCCCCCCCCCCCCCCCCOc1cc(OCCCCCCCCCCCCCCCCCCCCCC)cc(O[C@@]2(C(=O)O)C[C@H](OS(=O)(=O)O)[C@@H](NC(C)=O)[C@H]([C@H](OS(=O)(=O)O)[C@@H](COS(=O)(=O)O)OS(=O)(=O)O)O2)c1` [Example 35, Sodium[3,5-Didocosyloxyphenyl-5-acetamido-3,5-dideoxy-4,7,8,9-tetra-O-(sodiumoxysulfonyl)-D-glycero-β-D-galacto-2-nonulopyranosid)onate], the half-maximal inhibitory concentration (IC50) in the series on AIDS virus (HIV-1, IIIb) was found to be 90 µM. This compound also came in with a CC50 in series [1] of more than 20 µM.
